These are literature values, as cited in article PMC11187573, “Identification of SARS-CoV-2 Mpro inhibitors through deep reinforcement learning for de novo drug design and computational chemistry approaches” (RSC Medicinal Chemistry, 2024).

This data set has as its system SARS, SARS-CoV-2 and MERS Mpro. The settings on record: cited from earlier work.
Where [1] appears, read: Origin COVID_Moonshot, ref COVID Moonshot.

Read-outs that look alike come from different tables or passages of the source.

As to `CN(C)CCNc1nc2cc(O)ccc2c2c1C(=O)c1ccccc1-2` [CHEMBL488755, CN(C)CCNc1nc2cc(O)ccc2c(-c2c3cccc2)c1C3=O], the IC50 (Origin ChEMBL, ref ChEMBL) was 2.99 µM. For the compound `O=[N+]([O-])c1ccc(Sc2cccc[n+]2[O-])c2nonc12` [CHEMBL505670, [O-][N+](c(c1nonc11)ccc1Sc(cccc1)[n+]1[O-])=O], the IC50 (Origin ChEMBL, ref ChEMBL) was 0.1 µM. As for `O=[N+]([O-])c1cnc(Sc2nnc(O)n2-c2ccc3c(c2)OCCO3)s1` [CHEMBL508280, [O-][N+](c1cnc(Sc(n2-c(cc3)cc4c3OCCO4)nnc2O)s1)=O], the concentration for half-maximal inhibition (IC50) (Origin ChEMBL, ref ChEMBL) was 2.05 µM. For the compound `Nc1nnc(Sc2ncc([N+](=O)[O-])s2)s1` [CHEMBL510038, Nc1nnc(Sc2ncc([N+]([O-])=O)s2)s1], the IC50 (Origin ChEMBL, ref ChEMBL) is 0.03 µM. Take `CCOC(=O)c1c(N)sc(-c2ccccc2)c1C` [CHEMBL566136, CCOC(c1c(N)sc(-c2ccccc2)c1C)=O]: the IC50 (Origin ChEMBL, ref ChEMBL) is 3.19 µM.

Turning to `CC(C)N(CCC(=O)c1ccc2ccccc2c1)Cc1ccccc1` [CHEMBL596674, CC(C)N(CCC(c1cc2ccccc2cc1)=O)Cc1ccccc1], the IC50 (Origin ChEMBL, ref ChEMBL) is 0.58 µM. Consider `O=C(O)c1ccc(SSc2ccc(C(=O)O)cn2)nc1` [CHEMBL1161936, OC(c(cc1)cnc1SSc(cc1)ncc1C(O)=O)=O], for which the IC50 (Origin ChEMBL, ref ChEMBL) is 0.24 µM. `COCCCOc1ccnc(C[S+]([O-])c2nc3ccccc3[nH]2)c1C` (stereo not shown) [CHEMBL1200930, Cc(c(C[S+](c1nc(cccc2)c2[n-]1)[O-])ncc1)c1OCCCOC]: for the setting “Origin ChEMBL, ref ChEMBL”, the IC50 is 0.74 µM. In the case of `C[C@@](Cc1ccc(O)c(O)c1)(NN)C(=O)O` [CHEMBL1201236, C[C@](Cc(cc1)cc(O)c1O)(C(O)=O)NN], the IC50 (Origin ChEMBL, ref ChEMBL) is 3.55 µM. As for `Oc1cc2c(cc1O)[C@H]1c3ccccc3CN[C@@H]1CC2` [CHEMBL1256832, Oc(cc(CC[C@H]([C@@H]12)NCc3c2cccc3)c1c1)c1O], the IC50 (Origin ChEMBL, ref ChEMBL) is 1.05 µM. As to `O=C1C(Cl)=C(N2CCOCC2)C(=O)N1c1ccc(Cl)c(Cl)c1` [CHEMBL1271993, O=C(C(N1CCOCC1)=C(C1=O)Cl)N1c(cc1)cc(Cl)c1Cl], the IC50 (Origin ChEMBL, ref ChEMBL) is 2.83 µM. As to `CCC(=O)OCN1C(=O)C=CC1=O` [CHEMBL1374426, CCC(OCN(C(C=C1)=O)C1=O)=O], the IC50 (Origin ChEMBL, ref ChEMBL) is 0.29 µM.

As for `CCOc1cc(C(Nc2cc(C)ccn2)c2ccc3cccnc3c2O)ccc1OC` (stereo not shown) [CHEMBL1397952, CCOc(cc(C(c(ccc1cccnc11)c1O)Nc1nccc(C)c1)cc1)c1OC], the IC50 (Origin ChEMBL, ref ChEMBL) is 0.27 µM. `CCN1CCN(C(c2ccc(C(F)(F)F)cc2)c2ccc3cccnc3c2O)CC1` (stereo not shown) [CHEMBL1422849, CCN(CC1)CCN1C(c1ccc(C(F)(F)F)cc1)c(ccc1cccnc11)c1O]: under “Origin ChEMBL, ref ChEMBL”, the half-inhibitory concentration (IC50) is 0.15 µM. `O=C1C=CC(=O)C2=C1C1c3ccccc3C2c2ccccc21` [CHEMBL1474701, O=C(C=C1)C(C(c2c(C34)cccc2)c2c4cccc2)=C3C1=O]: under “Origin ChEMBL, ref ChEMBL”, the IC50 is 0.24 µM. On to `COc1ccc2[nH]c([S+]([O-])Cc3ncc(C)c(OC)c3C)nc2n1` (stereo not shown) [CHEMBL1475252, Cc1cnc(C[S+](c2nc(nc(cc3)OC)c3[nH]2)[O-])c(C)c1OC], for which the IC50 (Origin ChEMBL, ref ChEMBL) was 0.97 µM. On to `O=C(c1ccc(/C=C/c2n[nH]c3ccccc23)cc1)N1CCNCC1` [CHEMBL1908397, O=C(c1ccc(/C=C/c2n[nH]c3c2cccc3)cc1)N1CCNCC1], for which the 50% inhibitory concentration (IC50) (Origin ChEMBL, ref ChEMBL) was 3.6 µM. On to `COc1cccc(C(=O)CCN[C@@H](C)[C@H](O)c2ccccc2)c1` [CHEMBL2354521, C[C@@H]([C@@H](c1ccccc1)O)NCCC(c1cc(OC)ccc1)=O], for which the IC50 (Origin ChEMBL, ref ChEMBL) was 2.35 µM.

With `O=C1c2c(O)cc(O)cc2O[C@H](c2cc(O)c(O)c(O)c2)[C@H]1O` [CHEMBL3348861, O[C@H]([C@@H](c(cc1O)cc(O)c1O)Oc1c2c(O)cc(O)c1)C2=O], the IC50 (Origin ChEMBL, ref ChEMBL) was 0.18 µM.

Turning to `Oc1cc2c(cc1C(c1ccc(C(F)(F)F)cc1)N1CCOCC1)OCO2` (stereo not shown) [CHEMBL3797437, Oc1c(C(c2ccc(C(F)(F)F)cc2)N2CCOCC2)cc2OCOc2c1], the IC50 (Origin ChEMBL, ref ChEMBL) is 0.54 µM. As for `CC=C1C(OC2OC(CO)C(O)C(O)C2O)OC=C(C(=O)OC)C1CC(=O)OCCc1ccc(O)c(O)c1` (stereo not shown) [CHEMBL4303154, CC=C(C1CC(OCCc(cc2)cc(O)c2O)=O)C(OC(C(C2O)O)OC(CO)C2O)OC=C1C(OC)=O], the IC50 (Origin ChEMBL, ref ChEMBL) is 3.38 µM. For the compound `C[C@@H]1O[C@@H](Oc2c(-c3cc(O)c(O)c(O)c3)oc3cc(O)cc(O)c3c2=O)[C@@H](O)[C@H](O)[C@H]1O` [CHEMBL4303331, C[C@@H]([C@@H]([C@H]([C@@H]1O)O)O)O[C@H]1OC1=C(c(cc2O)cc(O)c2O)Oc(cc(cc2O)O)c2C1=O], the IC50 (Origin ChEMBL, ref ChEMBL) is 3.66 µM. On to `Oc1cc(CNC(=S)/C=C/c2cc(O)c(O)c(Br)c2)cc(O)c1O` [CHEMBL4303361, Oc1cc(CNC(/C=C/c(cc2O)cc(Br)c2O)=S)cc(O)c1O], for which, for the setting “Origin ChEMBL, ref ChEMBL”, the half-maximal inhibitory concentration (IC50) is 0.48 µM. As for `Cc1ccccc1N(C)C(=O)c1ccc([S+]([O-])c2nccs2)c([N+](=O)[O-])c1` (stereo not shown) [CHEMBL4303376, Cc(cccc1)c1N(C)C(c(cc1)cc([N+]([O-])=O)c1[S+](c1nccs1)[O-])=O], the IC50 (Origin ChEMBL, ref ChEMBL) is 1.87 µM. For the compound `C=C1C(=O)[C@]23[C@H](O)[C@H]1CC[C@@H]2[C@]12CO[C@]3(O)C[C@@H]1C(C)(C)CC[C@@H]2O` [CHEMBL4303503, CC(C)(CC1)[C@@H](C[C@@]([C@@]([C@@H]2O)([C@@H]3CC[C@H]2C2=C)C2=O)(O)OC2)[C@@]23[C@H]1O], the IC50 (Origin ChEMBL, ref ChEMBL) was 2.57 µM. As to `O=C1C=Cc2cc(Br)ccc2C1=O` [CHEMBL4303595, O=C(C=Cc1c2ccc(Br)c1)C2=O], the IC50 (Origin ChEMBL, ref ChEMBL) is 0.1 µM. Regarding `CCc1ccc(/C=C/C(=O)Nc2ccc(C(C)=O)cc2)o1` [CHEMBL4303618, CCc1ccc(/C=C/C(Nc(cc2)ccc2C(C)=O)=O)o1], the IC50 (Origin ChEMBL, ref ChEMBL) is 4.95 µM. `N#CSc1cc(SC#N)c(N)nc1N` [CHEMBL4303622, Nc(c(SC#N)c1)nc(N)c1SC#N]: the IC50 (Origin ChEMBL, ref ChEMBL) was 1.35 µM. For `CC(C)C[C@@H]1CN(C(=O)CCl)CCN1Cc1cccc(Cl)c1` [DAN-LON-a5fc619e-3, CC(C)C[C@H](C1)N(Cc2cccc(Cl)c2)CCN1C(CCl)=O], the IC50 under setting [1] was 0.784 µM. Take `O=C(CCl)N1CC2CC1CN2Cc1cccc(Cl)c1` (stereo not shown) [DAN-LON-a5fc619e-8, O=C(CCl)N1C(C2)CN(Cc3cccc(Cl)c3)C2C1]: the IC50 under setting [1] was 2.17 µM. On to `CCNc1ncc(C#N)cc1CN1CCN(C(=O)CCl)CC1` [DAR-DIA-fb20be43-4, CCNc(nc1)c(CN(CC2)CCN2C(CCl)=O)cc1C#N], for which the IC50 under setting [1] is 3.22 µM. Turning to `N#Cc1cc(CN2CCN(C(=O)CCl)CC2)c2ccccc2c1` [DAR-DIA-fb20be43-6, N#Cc1cc2ccccc2c(CN(CC2)CCN2C(CCl)=O)c1], the IC50 under setting [1] is 4.61 µM.

`COc1cc(CN2CCN(C(=O)CCl)CC2)c2ccccc2c1` [DAR-DIA-fb20be43-7, COc1cc2ccccc2c(CN(CC2)CCN2C(CCl)=O)c1]: under setting [1], the IC50 is 2.75 µM. `CC(NC(=O)CCl)c1cc(Cl)cc(-c2ccc(S(N)(=O)=O)cc2)c1` (stereo not shown) [DAV-CRI-14a23e73-1, CC(c1cc(Cl)cc(-c(cc2)ccc2S(N)(=O)=O)c1)NC(CCl)=O]: the IC50 under setting [1] was 0.466 µM. Regarding `O=C(Nc1cccnc1)N(CCC1CCCCC1)c1cccc(Cl)c1` [JOR-UNI-2fc98d0b-12, O=C(Nc1cnccc1)N(CCC1CCCCC1)c1cccc(Cl)c1], the IC50 under setting [1] was 3.06 µM. `O=C(NCc1ccc2c(c1)OCO2)c1nc(S(=O)(=O)Cc2ccccc2)ncc1Cl` [LON-WEI-4d77710c-10, O=C(c(nc(nc1)S(Cc2ccccc2)(=O)=O)c1Cl)NCc(cc1)cc2c1OCO2]: the half-inhibitory concentration (IC50) under setting [1] is 1.4 µM. `O=S(=O)(Nc1ccccc1SCc1cccc(Cl)c1F)c1cc(Cl)sc1Cl` [LON-WEI-4d77710c-64, O=S(c(cc(s1)Cl)c1Cl)(Nc(cccc1)c1SCc1cccc(Cl)c1F)=O]: under setting [1], the IC50 was 2.23 µM.
